Results: patent publication US6822100B2 (Bristol-Myers Squibb Company, priority 2001, dated 2004)
pKi: −log10 of the molar value. Where two headings read alike, the source gives them in different places.

How the values were obtained:
[1] = molecular target: T1, recombinant human dopamine D2L receptors (Homo sapiens, UniProt P14416); assay: Dopamine Binding Assay; details: HEK-D2L cell membranes, 150 pM [3H]-spiperone, Cheng and Prusoff
T1 construct: expressed in transfected cells; host or cells: HEK-293 (HEK-D2L), membrane homogenates
Method in brief: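 Competition binding on HEK-293 membranes stably expressing human D2L (~5 μg protein) with 150 pM [3H]-spiperone, 1.5 h at 22 °C in 50 mM Tris pH 7.4, 1 mM EDTA, 6 mM MgCl2. Filtration read-out; non-specific binding defined with 2 μM (+)butaclamol, Ki by Cheng-Prusoff.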

[2] = molecular target: T2, human serotonin transporters (Homo sapiens, UniProt P31645); assay: Serotonin Transporter Binding Assay; details: HEK-hSERT cell membranes, 1 nM [3H]-citalopram, Cheng and Prusoff; for Ki: SERT Ki (nM); for pKi: read-out: SERT Ki
T2 construct: expressed in transfected cells; host or cells: HEK-293 (HEK-hSERT), membrane homogenates
Method in brief: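 Displacement of 1 nM [^3H]-citalopram (1 hr, 25° C, Tris pH 7.4 with NaCl/KCl) from membranes of HEK-293 cells stably expressing human SERT, with bound ligand read after filtration. 10 μM fluoxetine defined non-specific binding. Ki values were derived via Cheng–Prusoff from IC50 displacement-curve midpoints.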

T1 sequence (P14416 whole entry): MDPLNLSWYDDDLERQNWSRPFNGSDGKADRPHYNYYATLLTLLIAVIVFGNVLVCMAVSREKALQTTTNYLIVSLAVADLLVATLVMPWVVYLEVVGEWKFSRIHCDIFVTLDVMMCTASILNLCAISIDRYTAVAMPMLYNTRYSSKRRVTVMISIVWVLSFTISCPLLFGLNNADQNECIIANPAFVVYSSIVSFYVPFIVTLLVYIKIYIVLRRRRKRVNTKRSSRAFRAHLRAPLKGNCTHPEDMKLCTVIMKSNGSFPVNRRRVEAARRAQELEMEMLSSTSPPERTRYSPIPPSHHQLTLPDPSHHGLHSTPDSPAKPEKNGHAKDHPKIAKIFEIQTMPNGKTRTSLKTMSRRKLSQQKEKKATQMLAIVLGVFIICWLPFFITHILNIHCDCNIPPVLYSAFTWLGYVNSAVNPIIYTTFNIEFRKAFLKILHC
T2 sequence (P31645 whole entry): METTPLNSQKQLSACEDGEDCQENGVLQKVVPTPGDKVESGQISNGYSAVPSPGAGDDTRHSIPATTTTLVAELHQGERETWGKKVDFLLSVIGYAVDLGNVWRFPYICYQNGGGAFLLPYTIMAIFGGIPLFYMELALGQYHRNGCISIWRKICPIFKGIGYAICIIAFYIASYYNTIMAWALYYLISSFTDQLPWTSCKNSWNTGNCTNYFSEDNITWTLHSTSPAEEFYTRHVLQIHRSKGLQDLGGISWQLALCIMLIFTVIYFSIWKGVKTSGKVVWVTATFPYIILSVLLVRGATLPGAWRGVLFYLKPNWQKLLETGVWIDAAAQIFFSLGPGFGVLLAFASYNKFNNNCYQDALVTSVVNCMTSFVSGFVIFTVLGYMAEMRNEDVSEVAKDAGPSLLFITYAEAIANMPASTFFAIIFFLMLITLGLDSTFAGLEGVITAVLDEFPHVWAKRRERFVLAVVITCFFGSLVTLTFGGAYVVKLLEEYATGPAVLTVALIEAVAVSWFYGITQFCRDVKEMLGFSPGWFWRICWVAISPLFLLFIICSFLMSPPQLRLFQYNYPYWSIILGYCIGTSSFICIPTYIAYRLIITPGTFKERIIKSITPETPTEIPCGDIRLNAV

| Structure (SMILES) | pKi [1] | Ki [2] [nM] | pKi [2] |
| --- | --- | --- | --- |
| CN(C)CC1CC1c1c[nH]c2ccc(C#N)cc12 (single isomer, unassigned) [Example 129b, Cis-2-[5-Cyanoindol-3-yl]-1-(N,N-dimethylaminomethyl)cyclopropane] | < 6.00 | 1 to 10 |  |
| CN(C)CC1CC1c1c[nH]c2ccc(F)cc12 (single isomer, unassigned) [Example 130a, Cis-2-[5-Fluoroindol-3-yl]-1-(N,N-dimethylaminomethyl)cyclopropane] | < 6.00 | 100 to 1000 |  |
| CN(C)CC1CC1c1c[nH]c2ccc(F)cc12 (single isomer, unassigned) [Example 130b, Cis-2-[5-Fluoroindol-3-yl]-1-(N,N-dimethylaminomethyl)cyclopropane] | < 6.00 | 1 to 10 |  |
| CN(C)C[C@@H]1C[C@H]1Cc1c[nH]c2ccc(F)cc12 (single isomer, unassigned) [Example 148, (+)-[2-(5-Fluoro-1H-indol-3-ylmethyl)-cyclopropylmethyl]-dimethylamine] | 6.00 to 7.00 |  | 7.00 to 8.00 |
| CN(C)C[C@@H]1C[C@H]1Cc1c[nH]c2ccc(F)cc12 (single isomer, unassigned) [Example 149, (−)-[2-(5-Fluoro-1H-indol-3-ylmethyl)-cyclopropylmethyl]-dimethylamine] | 6.00 to 7.00 |  | 8.00 to 9.00 |
| CN(C)CC1CC1c1csc2ccccc12 (single isomer, unassigned; (+)) [Example 190B, (+)-(2-Benzo[b]thiophen-3-yl-cyclopropylmethyl)-dimethyl-amine] | < 6.00 |  | 7.00 to 8.00 |
| CN(C)C[C@H]1C[C@@H]1c1c[nH]c2ccc(C#N)cc12 [Example 5, (1S,2S)-trans-2-[5-cyanoindol-3-yl]-1-(N,N-dimethylaminomethyl)-cyclopropane] | < 6.00 | < 1 |  |
| N#Cc1ccc2[nH]cc(C3CC3CNCc3cccc(F)c3)c2c1 (stereo not drawn) [Example 12, trans-2-[5-Cyanoindol-3-yl]-1-[N-(3-fluorobenzyl)aminomethyl]-cyclopropane] | 6.00 to 7.00 |  | 8.00 to 9.00 |
| N#Cc1ccc2[nH]cc(C3CC3CNCc3ccc(F)cc3)c2c1 (stereo not drawn) [Example 13, trans-2-[5-Cyanoindol-3-yl]-1-[N-(4-fluorobenzyl)aminomethyl]-cyclopropane] | 6.00 to 7.00 |  | 8.00 to 9.00 |
| N#Cc1ccc2[nH]cc(C3CC3CNCc3ccccn3)c2c1 (stereo not drawn) [Example 14, trans-2-[5-Cyanoindol-3-yl]-1-[N-(2-pyridylmethyl)aminomethyl]-cyclopropane] | 6.00 to 7.00 |  | 7.00 to 8.00 |
| N#Cc1ccc2[nH]cc(C3CC3CNCc3cccnc3)c2c1 (stereo not drawn) [Example 15, trans-2-[5-Cyanoindol-3-yl]-1-[N-(3-pyridyl)methylaminomethyl]-cyclopropane] | 6.00 to 7.00 |  | 7.00 to 8.00 |
| N#Cc1ccc2[nH]cc(C3CC3CNCc3ccncc3)c2c1 (stereo not drawn) [Example 16, trans-2-[5-Cyanoindol-3-yl]-1-[N-(4-pyridyl)methylaminomethyl]-cyclopropane] | 6.00 to 7.00 |  | 7.00 to 8.00 |
| N#Cc1ccc2[nH]cc(C3CC3CNCCCc3ccccc3)c2c1 (stereo not drawn) [Example 21, trans-2-[5-Cyanoindol-3-yl]-1-[N-3-phenylpropylaminomethyl]-cyclopropane] | 7.00 to 8.00 |  | 8.00 to 9.00 |
| N#Cc1ccc2[nH]cc(C3CC3CNCCCc3cccnc3)c2c1 (stereo not drawn) [Example 22, trans-2-[5-Cyanoindol-3-yl]-1-[N-3-(3-pyridyl)propylaminomethyl]-cyclopropane] | 6.00 to 7.00 |  | 8.00 to 9.00 |
| N#Cc1ccc2[nH]cc(C3CC3CNCCCn3ccnc3)c2c1 (stereo not drawn) [Example 24, trans-2-[5-Cyanoindol-3-yl]-1-[N-3-(1-imidazolyl)propylaminomethyl]-cyclopropane] | 6.00 to 7.00 |  | 7.00 to 8.00 |
| N#Cc1ccc2[nH]cc(C3CC3CNCCc3cccs3)c2c1 (stereo not drawn) [Example 26, trans-2-[5-Cyanoindol-3-yl]-1-[N-2-(2-thiopheneyl)ethylaminomethyl]-cyclopropane] | 7.00 to 8.00 |  | 8.00 to 9.00 |
| N#Cc1ccc2[nH]cc(C3CC3CNCC3CC3)c2c1 (stereo not drawn) [Example 28, trans-2-[5-Cyanoindol-3-yl]-1-[N-cyclopropylmethylaminomethyl]-cyclopropane] | < 6.00 | 10 to 100 |  |
| N#Cc1ccc2[nH]cc(C3CC3CNCC3CCCCC3)c2c1 (stereo not drawn) [Example 30, trans-2-[5-Cyanoindol-3-yl]-1-[N-cyclohexylmethylaminomethyl]-cyclopropane] | 7.00 to 8.00 |  | 8.00 to 9.00 |
| CC(C)CNCC1CC1c1c[nH]c2ccc(C#N)cc12 (stereo not drawn) [Example 31, trans-2-[5-Cyanoindol-3-yl]-1-[N-isobutylaminomethyl]-cyclopropane] | 7.00 to 8.00 |  | 7.00 to 8.00 |
| CC(C)CCNCC1CC1c1c[nH]c2ccc(C#N)cc12 (stereo not drawn) [Example 32, trans-2-[5-Cyanoindol-3-yl]-1-[N-3-methyl-butylaminomethyl]-cyclopropane] | 7.00 to 8.00 |  | 7.00 to 8.00 |
| CC1CCN(CC2CC2c2c[nH]c3ccc(C#N)cc23)CC1 (stereo not drawn) [Example 33, trans-2-[5-Cyanoindol-3-yl]-1-(4-methyl-piperidin-1-yl-methyl)-cyclopropane] | 6.00 to 7.00 |  | 7.00 to 8.00 |
| N#Cc1ccc2[nH]cc(C3CC3CN3CCC(Cc4ccccc4)CC3)c2c1 (stereo not drawn) [Example 34, trans-1-(4-Benzyl-piperidin-1-ylmethyl)-2-[5-cyanoindol-3-yl]-cyclopropane] | 8.00 to 9.00 |  | 8.00 to 9.00 |
| N#Cc1ccc2[nH]cc(C3CC3CN3CCNCC3)c2c1 (stereo not drawn) [Example 35, trans-2-[5-Cyanoindol-3-yl]-1-(piperazin-1-yl-methyl)-cyclopropane] | < 6.00 | 1 to 10 |  |
| N#Cc1ccc2[nH]cc(C3CC3CN3CCN(Cc4ccccc4)CC3)c2c1 (stereo not drawn) [Example 36, trans-1-[4-Benzyl-piperazin-1-yl-methyl]-2-[5-cyanoindol-3-yl]-cyclopropane] | 7.00 to 8.00 |  | 7.00 to 8.00 |
| CCCN(CCC)CC1CC1c1c[nH]c2ccc(C#N)cc12 (stereo not drawn) [Example 38, trans-2-[5-Cyanoindol-3-yl]-1-[N,N-dipropylaminomethyl]-cyclopropane] | < 6.00 | 1 to 10 |  |
| N#Cc1ccc2[nH]cc(C3CC3CN3CCCC3)c2c1 (stereo not drawn) [Example 46, trans-2-[5-Cyanoindol-3-yl]-1-[pyrrolidin-1-yl-methyl]-cyclopropane] | 6.00 to 7.00 |  | 8.00 to 9.00 |
| N#Cc1ccc2[nH]cc(C3CC3CN3CCCCC3)c2c1 (stereo not drawn) [Example 47, trans-2-[5-Cyanoindol-3-yl]-1-[piperidin-1-yl-methyl]-cyclopropane] | 6.00 to 7.00 |  | 7.00 to 8.00 |
| COc1ccccc1CNCC1CC1c1c[nH]c2ccc(F)cc12 (stereo not drawn) [Example 50, trans-2-[5-Fluoroindol-3-yl]-1-[N-(2-methoxybenzyl)aminomethyl]-cyclopropane] | 7.00 to 8.00 |  | 8.00 to 9.00 |
| COc1cccc(CNCC2CC2c2c[nH]c3ccc(F)cc23)c1 (stereo not drawn) [Example 51, trans-2-[5-Fluoroindol-3-yl]-1-[N-(3-methoxybenzyl)aminomethyl]-cyclopropane] | 6.00 to 7.00 |  | 8.00 to 9.00 |
| COc1ccc(CNCC2CC2c2c[nH]c3ccc(F)cc23)cc1 (stereo not drawn) [Example 52, trans-2-[5-Fluoroindol-3-yl]-1-[N-(4-methoxybenzyl)aminomethyl]-cyclopropane] | 6.00 to 7.00 |  | 7.00 to 8.00 |
